Reference: PubChem BioAssay (NCI)
Where “and” joins values, the source holds several entries; their conditions need not be identical. Equal entries are not always repeated.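 Following 48 hours of exposure in 96-well plates, responses at five concentrations were used to interpolate endpoints linearly. At the GI50, growth is halved. The concentration for full growth arrest is given as TGI.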

Legend:
Assay in all cases: DTP human tumour cell line panel, 48 h
SN12C renal = system: SN12C renal
COLO 205 colon = system: COLO 205 colon
HL-60(TB) leukemia = system: HL-60(TB) leukemia
MDA-MB-231 breast = system: MDA-MB-231 breast
NCI/ADR-RES ovarian = system: NCI/ADR-RES ovarian
TK-10 renal = system: TK-10 renal
SF-539 CNS = system: SF-539 CNS
SNB-75 CNS = system: SNB-75 CNS
U251 CNS = system: U251 CNS
HCT-116 colon = system: HCT-116 colon

Structure (SMILES)	TGI (SN12C renal)	TGI (COLO 205 colon) [µM]	TGI (HL-60(TB) leukemia)	GI50 (MDA-MB-231 breast) [µM]	TGI (NCI/ADR-RES ovarian)	GI50 (TK-10 renal)	TGI (TK-10 renal) [µM]	TGI (SF-539 CNS)	GI50 (SNB-75 CNS)	TGI (SNB-75 CNS)	GI50 (SN12C renal) [µM]	GI50 (COLO 205 colon) [µM]	GI50 (HL-60(TB) leukemia) [µM]	GI50 (U251 CNS) [µM]	TGI (U251 CNS) [µM]	TGI (MDA-MB-231 breast) [µM]	GI50 (SF-539 CNS) [µM]	TGI (HCT-116 colon) [µM]	GI50 (NCI/ADR-RES ovarian) [µM]	GI50 (HCT-116 colon) [µM]
CC[C@H]1CN2CCc3cc(OC)c(OC)cc3[C@@H]2C[C@@H]1C[C@H]1NCCc2cc(O)c(OC)cc21	0.0787 µM and 0.552 µM	0.0187	0.0408 µM and 0.031 µM	0.00901	> 100 µM and 10.7 µM	0.0278 µM and < 0.0128 µM	0.0644	0.0648 µM and < 0.0237 µM and 0.0511 µM	0.0155 µM and 0.025 µM	0.0735 µM and 0.147 µM and 0.0944 µM	–	–	–	–	–	–	–	–	–	–
OCCCN=NNc1ccc(-c2nc3ccccc3[nH]2)cc1	46.6 µM	52.9	96.2 µM	3.31	–	31.9 µM	82.5	28.4 µM	6.07 µM	38.6 µM	14.3	12.3	25.2	2.07	4.76	12.7	5.97	–	–	–
CCn1cc(/C=C/C(C)c2cn(CC)c(=O)[nH]c2=O)c(=O)[nH]c1=O (configuration not stated)	> 100 µM	> 100	> 100 µM	–	–	–	> 100	> 100 µM	–	> 100 µM	–	–	–	–	> 100	–	–	–	–	–
CC1=CC(=O)CCC2(C)C1CC[C@@H]2OC=O (some centres not stated)	> 100 µM	> 100	> 100 µM	–	–	–	> 100	> 100 µM	–	> 100 µM	–	–	–	–	> 100	–	–	> 100	–	–
CCSCC(N)C(=O)O (configuration not stated)	> 100 µM	> 100	> 100 µM	–	> 100 µM	–	> 100	–	–	> 100 µM	–	–	–	–	> 100	> 100	–	> 100	–	–
CCCCCCCC/C=C/CCCCCCCCC1=NCCN1CCO	15.9 µM	13.9	6.35 µM	1.99	38.4 µM	12.6 µM	26.7	3.02 µM	2.8 µM	15.3 µM	4.19	3.76	2.45	1.78	3.67	4.19	1.64	–	8.44	–
COc1ccc(/C(=N/NC(=O)NN)C(c2ccc(OC)cc2)C2(O)CNc3c(Cl)cc(Cl)cc32)cc1 (configuration not stated)	> 100 µM	> 100	> 100 µM	–	–	–	> 100	> 100 µM	–	> 100 µM	–	–	–	–	> 100	–	–	> 100	–	–
C=C/C=C(\NC(=O)C(Cl)(Cl)Cl)[Si](C)(C)C	> 100 µM	> 100	> 100 µM	–	–	–	> 100	> 100 µM	–	> 100 µM	–	–	–	–	> 100	–	–	> 100	–	–
COC1(OC)CC2C=C(S(=O)(=O)c3ccccc3)C1N(Cc1ccccc1)C2=O (configuration not stated)	68.2 µM	43.4	50.5 µM	–	–	–	66.4	44.9 µM	–	> 100 µM	–	–	–	–	> 100	–	–	30	–	–
CC(=O)C1CC=C(C)CC1 (configuration not stated)	> 100 µM	> 100	> 100 µM	–	–	–	> 100	> 100 µM	–	> 100 µM	–	–	–	–	> 100	–	–	> 100	–	–
COC1=CC(O)(CC(N)=O)c2ccccc2C1=O (configuration not stated)	> 100 µM	> 100	> 100 µM	–	–	–	> 100	–	–	> 100 µM	–	–	–	–	> 100	–	–	> 100	–	–
O=P(O)(O)c1ccccc1 (tested in a mixture with another compound)	> 100 µM	> 100	> 100 µM	–	> 100 µM	–	> 100	–	–	> 100 µM	–	–	–	–	> 100	> 100	–	> 100	–	–
CC1C[C@H](OC(N)=O)C(C)CC1=O (some centres not stated)	> 100 µM	> 100	> 100 µM	–	–	–	> 100	> 100 µM	–	> 100 µM	–	–	–	–	> 100	–	–	> 100	–	–
CCC[CH2][Sn]([CH2]CCC)([O]C(=O)c1cc(F)cc(F)c1)[O]C(=O)c1cc(F)cc(F)c1	2.68 µM	2.05	2.17 µM	–	–	1.3 µM	2.61	2.89 µM	0.82 µM	2.09 µM	1.35	0.841	0.409	0.615	1.85	–	1.52	2.54	–	1.27
NC(=O)C1=NNc2ccccc2C(=O)N1c1ccccc1	> 100 µM	> 100	–	–	> 100 µM	–	> 100	> 100 µM	–	> 100 µM	–	–	–	–	> 100	> 100	–	> 100	–	–
CCn1c2c(n(CC)c1=S)-c1c(n(CC)c(=S)n1CC)SSSS2	24 µM	19.1	8.76 µM	–	–	–	28.4	28.2 µM	–	26.6 µM	–	–	–	–	45.5	10	–	11	–	–
Cc1cc(N(CCC#N)S(C)(=O)=O)ccc1C=O	> 100 µM	> 100	> 100 µM	–	–	–	–	> 100 µM	–	> 100 µM	–	–	–	–	> 100	–	–	> 100	–	–
NC(N)=NS(=O)(=O)c1ccc(NCc2c3ccccc3nc3ccccc23)cc1	41.3 µM	> 100	10.9 µM	–	–	–	> 88	4.72 µM	–	9.02 µM	–	–	–	–	10.9	> 100	–	56.2	–	–
Brc1ccc(-c2nnc(-c3nn(-c4ccccc4)c4nc5ccccc5nc34)o2)cc1	> 100 µM	> 100	> 100 µM	–	–	–	> 100	> 100 µM	–	> 100 µM	–	–	–	–	> 100	–	–	> 100	–	–
N#CC(C(=O)/C(=N\Nc1nc(=S)[nH]n1N)C(C#N)c1ccc(Cl)cc1)c1ccc(Cl)cc1 (configuration not stated)	> 100 µM	> 100	–	–	–	–	> 100	> 100 µM	–	> 100 µM	–	–	–	–	> 100	–	–	> 100	–	–
O=C(CO)CC(=O)C(=O)Nc1nc([N+](=O)[O-])cs1	> 100 µM	> 100	> 100 µM	–	–	–	> 100	> 100 µM	–	> 100 µM	–	–	–	–	> 100	–	–	> 100	–	–
O=S(O)CCCCCSSCCCCSSCCCCCS(=O)O	> 100 µM	> 100	–	–	–	–	> 100	> 100 µM	–	> 100 µM	–	–	–	–	> 100	–	–	–	–	–
NS(=O)(=O)c1cc2c(cc1Cl)NC(Cc1ccccc1)NS2(=O)=O (configuration not stated)	> 100 µM	> 100	–	–	> 100 µM	–	> 100	> 100 µM	–	> 100 µM	–	–	–	–	> 100	> 100	–	> 100	–	–
